In patent US4443436A, “C-20-Modified macrolide derivatives of the macrolide antibiotics tylosin, desmycosin, macrocin, and lactenocin” (Eli Lilly and Company, priority 1982, dated 1984):
≈ marks a conversion by molar mass, not a printed value. Like-named read-outs stand apart in the source and are kept apart here.

Experiments:
Mycoplasma synoviae = test: MIC, broth-dilution microtiter test, Mycoplasma synoviae; type: cell-based
Excerpt: (§1) The MIC's in Table X were obtained using conventional broth-dilution microtiter tests.

[1] = test system: Staphylococcus epidermidis EPI1; test: MIC, standard agar-dilution assay, Staphylococcus epidermidis EPI1; type: cell-based
[2] = test system: Haemophilus influenzae Holt; test: MIC, standard agar-dilution assay, Haemophilus influenzae Holt; type: cell-based
Mycoplasma hyorhinis = test: MIC, broth-dilution microtiter test, Mycoplasma hyorhinis; type: cell-based
Excerpt: as §1

Mycoplasma gallisepticum = test: MIC, broth-dilution microtiter test, Mycoplasma gallisepticum; type: cell-based; settings: Mycoplasma gallisepticum, broth-dilution microtiter
Excerpt: as §1

[3] = test system: Staphylococcus epidermidis EPI2; test: MIC, standard agar-dilution assay, Staphylococcus epidermidis EPI2; type: cell-based; settings: Staphylococcus epidermidis EPI2, agar dilution
Staphylococcus aureus = test: MIC, broth-dilution microtiter test, Staphylococcus aureus; type: cell-based; settings: broth-dilution microtiter
Excerpt: as §1

[4] = test system: Staphylococcus aureus X400; test: MIC, standard agar-dilution assay, Staphylococcus aureus X400; type: cell-based
Streptococcus bovis 80 = test: MIC, broth-dilution microtiter test, Streptococcus bovis 80; type: cell-based
Excerpt: as §1

[5] = test system: Streptococcus pyogenes C203; test: In vivo protection of mice experimentally infected with S. pyogenes C203; settings: mice, doses given 1 and 4 hours post-infection; for ED50: Streptococcus pyogenes
Experimental: The C-20 modified derivatives of this invention have shown in vivo antimicrobial activity against experimentally-induced infections in laboratory animals. When two doses of test compound were administered to mice experimentally infected with S. pyogenes C203, the activity observed was measured as an ED50 value [effective dose in mg/kg to protect 50% of the test animals: see Warren Wick, et al., J. Bacteriol. 81, 233-235 (1961)].

[6] = test system: Streptococcus pyogenes C203; test: MIC, standard agar-dilution assay, Streptococcus pyogenes C203; type: cell-based
Pasteurella multocida [7] = test: Subcutaneous treatment of Pasteurella multocida-infected chicks; type: in vivo, one-day-old chicks; settings: 30 mg/kg × 2, 1 and 4 hours post-challenge
Experimental: (§2) Many of the C-20 modified derivatives of this invention have also shown in vivo antibacterial activity against infections induced by gram-negative bacteria. Tables XII and XIII summarize the results of tests in which illustrative compounds were evaluated against Pasteurella infection in one-day-old chicks. The compounds were administered parenterally or orally after challenge of the chicks with Pasteurella multocida (0.1 ml of a 10^-4 dilution of a twenty-hour tryptose broth culture of an avian P. multocida given subcutaneously). In these tests, unless indicated otherwise, all non-medicated infected chicks died within 24 hours of Pasteurella challenge. In the tests summarized in Table XII the compounds were administered by subcutaneous injection at a dosage of 30 mg/kg, 1 and 4 hours post-challenge of the chicks with P. multocida. In the test summarized in Table XIII the compounds were administered by gavage at 1 and 5 hours post-challenge of the chicks with P. multocida.

[8] = test system: Staphylococcus aureus V41; test: MIC, standard agar-dilution assay, Staphylococcus aureus V41; type: cell-based
[9] = test system: Pasteurella hemolytica 22C; test: MIC, broth-dilution microtiter test, Pasteurella hemolytica 22C; type: cell-based; settings: Pasteurella hemolytica 22C, broth-dilution microtiter
Excerpt: as §1

[10] = test system: Pasteurella multocida 60A; test: MIC, broth-dilution microtiter test, Pasteurella multocida 60A; type: cell-based; settings: Pasteurella multocida 60A, avian isolate, broth-dilution microtiter
Excerpt: as §1

Mycoplasma hyopneumoniae = test: MIC, broth-dilution microtiter test, Mycoplasma hyopneumoniae; type: cell-based
Excerpt: as §1

[11] = test system: Staphylococcus aureus X1.1; test: MIC, standard agar-dilution assay, Staphylococcus aureus X1.1; type: cell-based
[12] = test system: Streptococcus pneumoniae Park I; test: microbe, parasite or virus in culture; type: cell-based
[13] = test system: Staphylococcus aureus S13E; test: MIC, standard agar-dilution assay, Staphylococcus aureus S13E; type: cell-based
Streptococcus Group 9960 = test: MIC, standard agar-dilution assay, Streptococcus Group 9960; type: cell-based
[14] = test system: Pasteurella multocida 17E; test: MIC, broth-dilution microtiter test, Pasteurella multocida 17E; type: cell-based
Excerpt: as §1

[15] = test system: Haemophilus influenzae R252; test: MIC, standard agar-dilution assay, Haemophilus influenzae R252; type: cell-based
Pasteurella multocida [16] = test: Oral (gavage) treatment of Pasteurella multocida-infected chicks; type: in vivo, one-day-old chicks
Experimental: as §2

[17] = test system: Streptococcus Group D X66; test: MIC, standard agar-dilution assay, Streptococcus Group D X66; type: cell-based
[18] = Mycoplasmoides gallisepticum, read-out: MIC
[19] = C203, sc, subcutaneous, read-out: ED50, Subcutaneous
[20] = C203, oral, read-out: ED50, Oral

CCC1OC(=O)CC(O)C(C)C(OC2OC(C)C(O)C(N(C)C)C2O)C(CCN2C(=O)c3ccccc3C2=O)CC(C)C(=O)C=CC(C)=CC1COC1OC(C)C(O)C(OC)C1OC (centres unmarked) [Compound 43, 20-DH-DO-20-N-Phthalimidodesmycosin]
MIC (Mycoplasma synoviae; Mycoplasma synoviae, broth-dilution microtiter): 0.78 µg/mL (≈ 0.864 µM)
MIC ([1]; Staphylococcus epidermidis EPI1, agar dilution): 0.12 µg/mL (≈ 0.133 µM)
MIC ([2]; Haemophilus influenzae Holt, ampicillin-sensitive strain, agar dilution): 32 µg/mL (≈ 35.4 µM)
MIC (Mycoplasma hyorhinis; Mycoplasma hyorhinis, broth-dilution microtiter): 50 µg/mL (≈ 55.4 µM)
MIC (Mycoplasma gallisepticum): 0.78 µg/mL (≈ 0.864 µM)
MIC [3]: 0.25 µg/mL (≈ 0.277 µM)
MIC (Staphylococcus aureus): 0.78 µg/mL (≈ 0.864 µM)
MIC ([4]; Staphylococcus aureus X400, methicillin-resistant strain, agar dilution): 0.5 µg/mL (≈ 0.554 µM)
MIC (Streptococcus bovis 80; Streptococcus bovis 80, broth-dilution microtiter): 6.25 µg/mL (≈ 6.92 µM)
ED50, Oral ([5]; oral): 16 mg/kg × 2
ED50, Subcutaneous ([5]; subcutaneous): 1.6 mg/kg × 2
MIC ([6]; Streptococcus pyogenes C203, agar dilution): 0.25 µg/mL (≈ 0.277 µM)
Number of Deaths/Number Treated (Pasteurella multocida [7]): 10/10
MIC ([8]; Staphylococcus aureus V41, penicillin-resistant strain, agar dilution): 0.12 µg/mL (≈ 0.133 µM)
MIC [9]: 25 µg/mL (≈ 27.7 µM)
MIC [10]: 12.5 µg/mL (≈ 13.8 µM)
MIC (Mycoplasma hyopneumoniae; Mycoplasma hyopneumoniae, broth-dilution microtiter): 12.5 µg/mL (≈ 13.8 µM)
MIC ([11]; Staphylococcus aureus X1.1, agar dilution): 0.12 µg/mL (≈ 0.133 µM)
MIC ([12]; Streptococcus pneumoniae Park I, agar dilution): 2 µg/mL (≈ 2.21 µM)
MIC ([13]; Staphylococcus aureus S13E, agar dilution): 0.25 µg/mL (≈ 0.277 µM)
MIC (Streptococcus Group 9960; Streptococcus Group 9960, agar dilution): 4 µg/mL (≈ 4.43 µM)
MIC ([14]; Pasteurella multocida 17E, bovine isolate, broth-dilution microtiter): 25 µg/mL (≈ 27.7 µM)
MIC ([15]; Haemophilus influenzae R252, ampicillin-resistant strain, agar dilution): 32 µg/mL (≈ 35.4 µM)

CCC1OC(=O)CC(O)C(C)C(OC2OC(C)C(O)C(N(C)C)C2O)C(CCOc2ccc([N+](=O)[O-])cc2)CC(C)C(=O)C=CC(C)=CC1COC1OC(C)C(O)C(OC)C1OC (centres unmarked) [Compound 34, 20-DH-20-O-(p-Nitrophenyl)desmycosin]
MIC (Mycoplasma synoviae; Mycoplasmopsis synoviae): 0.78 µg/mL (≈ 0.871 µM)
MIC ([1]; Staphylococcus epidermidis, EPI1): 0.5 µg/mL (≈ 0.559 µM)
MIC ([2]; Haemophilus influenzae): 16 µg/mL (≈ 17.9 µM)
MIC (Mycoplasma hyorhinis; Mycoplasma): 50 µg/mL (≈ 55.9 µM)
MIC (Mycoplasma gallisepticum; [18]): 0.39 µg/mL (≈ 0.436 µM)
MIC ([3]; read-out: MIC): 0.12 µg/mL (≈ 0.134 µM)
MIC (Staphylococcus aureus; read-out: MIC): 0.39 µg/mL (≈ 0.436 µM)
MIC ([4]; Staphylococcus aureus, X400): 1 µg/mL (≈ 1.12 µM)
MIC (Streptococcus bovis 80; Streptococcus equinus, 80): 1.56 µg/mL (≈ 1.74 µM)
Number of Deaths/Number tested (Pasteurella multocida [16]; 0.5 g/gal equivalent): 7/10
Number of Deaths/Number tested (Pasteurella multocida [16]; 1.0 g/gal equivalent): 9/10
ED50 [5, 19]: 1.1 mg/kg
ED50 [5, 20]: 5 mg/kg
MIC ([6]; Streptococcus pyogenes, C203): 1 µg/mL (≈ 1.12 µM)
MIC ([8]; Staphylococcus aureus, V41): 0.5 µg/mL (≈ 0.559 µM)
MIC ([9]; read-out: MIC): 25 µg/mL (≈ 27.9 µM)
MIC ([10]; read-out: MIC): 25 µg/mL (≈ 27.9 µM)
MIC (Mycoplasma hyopneumoniae; Mesomycoplasma hyopneumoniae): 12.5 µg/mL (≈ 14 µM)
MIC ([11]; Staphylococcus aureus, X1.1): 0.5 µg/mL (≈ 0.559 µM)
MIC ([12]; Streptococcus pneumoniae): 1 µg/mL (≈ 1.12 µM)
MIC ([13]; Staphylococcus aureus, S13E): 0.5 µg/mL (≈ 0.559 µM)
MIC (Streptococcus Group 9960; GROUP9960, Streptococcus Group 9960, agar dilution, read-out: MIC): 8 µg/mL (≈ 8.94 µM)
MIC ([14]; Pasteurella multocida, 17E): 12.5 µg/mL (≈ 14 µM)
MIC ([15]; Haemophilus influenzae, R252): 16 µg/mL (≈ 17.9 µM)
MIC [17]: 4 µg/mL (≈ 4.47 µM)

CCC1OC(=O)CC(O)C(C)C(OC2OC(C)C(O)C(N(C)C)C2O)C(CCF)CC(C)C(=O)C=CC(C)=CC1COC1OC(C)C(O)C(OC)C1OC (centres unmarked) [Compound 22, 20-DH-DO-20-Fluorodesmycosin]
MIC (Mycoplasma synoviae; Mycoplasmopsis synoviae): 50 µg/mL (≈ 64.4 µM)
MIC ([1]; Staphylococcus epidermidis EPI1, agar dilution, read-out: MIC): 0.12 µg/mL (≈ 0.155 µM)
MIC ([2]; Haemophilus influenzae Holt, ampicillin-sensitive strain, read-out: MIC): 16 µg/mL (≈ 20.6 µM)
MIC (Mycoplasma hyorhinis; Mycoplasma): 50 µg/mL (≈ 64.4 µM)
MIC (Mycoplasma gallisepticum; [18]): 12.5 µg/mL (≈ 16.1 µM)
MIC ([3]; read-out: MIC): 0.12 µg/mL (≈ 0.155 µM)
MIC (Staphylococcus aureus; read-out: MIC): 3.12 µg/mL (≈ 4.02 µM)
MIC ([4]; Staphylococcus aureus X400, methicillin-resistant strain, agar dilution, read-out: MIC): 0.5 µg/mL (≈ 0.644 µM)
MIC (Streptococcus bovis 80; Streptococcus equinus, Streptococcus bovis 80, broth-dilution microtiter, read-out: MIC): 1.56 µg/mL (≈ 2.01 µM)
Number of Deaths/Number tested (Pasteurella multocida [16]; 0.5 g/gal equivalent): 6/10
Number of Deaths/Number tested (Pasteurella multocida [16]; 1.0 g/gal equivalent): 0/10
Number of Deaths/Number tested (Pasteurella multocida [16]; 2.0 g/gal equivalent): 1/10
ED50 [5, 19]: 5 mg/kg
ED50 [5, 20]: 11 mg/kg
MIC ([6]; Streptococcus pyogenes, C203): 0.25 µg/mL (≈ 0.322 µM)
MIC ([8]; Staphylococcus aureus, V41): 0.25 µg/mL (≈ 0.322 µM)
MIC ([9]; read-out: MIC): > 50 µg/mL
MIC ([10]; read-out: MIC): 25 µg/mL (≈ 32.2 µM)
MIC (Mycoplasma hyopneumoniae; Mesomycoplasma hyopneumoniae, Mycoplasma hyopneumoniae, broth-dilution microtiter, read-out: MIC): > 25 µg/mL
MIC ([11]; Staphylococcus aureus, X1.1): 0.25 µg/mL (≈ 0.322 µM)
MIC ([12]; Streptococcus pneumoniae): 2 µg/mL (≈ 2.58 µM)
MIC ([13]; Staphylococcus aureus, S13E): 0.25 µg/mL (≈ 0.322 µM)
MIC (Streptococcus Group 9960; GROUP9960): 8 µg/mL (≈ 10.3 µM)
MIC ([14]; Pasteurella multocida 17E, bovine isolate, broth-dilution microtiter, read-out: MIC): 25 µg/mL (≈ 32.2 µM)
MIC ([15]; Haemophilus influenzae R252, ampicillin-resistant strain, read-out: MIC): 16 µg/mL (≈ 20.6 µM)
MIC [17]: 8 µg/mL (≈ 10.3 µM)
